Measurements as given in US6297242A, “N-substituted amidine and guanidine oxazolidinone antibacterials and methods of use thereof” (Ortho-McNeil Pharmaceutical, Inc., priority 2000, dated 2001).
Values after ≈ are worked out from the molar mass of the structure shown.

Columns and labels:
E. faecium OC3312 = assay: NCCLS broth microdilution MIC, E. faecium OC3312; format: cell-based; conditions: Enterococcus faecium, cation adjusted Mueller-Hinton broth, 35° C., 16-20 hours
Description: (§1) Minimal inhibitory concentration (MIC) has been an indicator of in vitro antibacterial activity widely used in the art. The in vitro antimicrobial activity of the compounds was determined by the microdilution broth method following the test method from the National Committee for Laboratory Standards (NCCLS). This method is described in the NCCLS Document M7-A4, Vol.17, No.2, "Methods for Dilution Antimicrobial Susceptibility Test for Bacteria that Grow Aerobically-Fourth Edition", which is incorporated herein by reference.
(§2) In this method two-fold serial dilutions of drug in cation adjusted Mueller-Hinton broth are added to wells in microdilution trays. The test organisms are prepared by adjusting the turbidity of actively growing broth cultures so that the final concentration of test organism after it is added to the wells is approximately 5×10^4 CFU/well.
(§3) Following inoculation of the microdilution trays, the trays are incubated at 35° C. for 16-20 hours and then read. […] The amount of growth in the wells containing the test compound is compared with the amount of growth in the growth-control wells (no test compound) used in each tray. As set forth in Table 1, compounds of the present invention were tested against a variety of Gram positive and Gram negative pathogenic bacteria resulting in a range of activities, from 1 to ≥128 μg/mL depending on the organism tested.

MRSA OC2878 = assay: NCCLS broth microdilution MIC, MRSA OC2878; format: cell-based, methicillin-resistant Staphylococcus aureus; conditions: Staphylococcus aureus, cation adjusted Mueller-Hinton broth, 35° C., 16-20 hours
Description: as §1, §2, §3

S. aureus OC4172 = assay: NCCLS broth microdilution MIC, S. aureus OC4172; format: cell-based; conditions: Staphylococcus aureus, cation adjusted Mueller-Hinton broth, 35° C., 16-20 hours
Description: as §1, §2, §3

MIC (E. faecium OC3312) [µg/mL] | MIC (MRSA OC2878) [µg/mL] | MIC (S. aureus OC4172) [µg/mL] | SMILES
8 (≈ 20.5 µM) | 8 (≈ 20.5 µM) | 8 (≈ 20.5 µM) | CCCC(=NC#N)NC[C@H]1CN(c2ccc(N3CCOCC3)c(F)c2)C(=O)O1 [Cmpd 5, N-Cyano-N'-[[(5S)-3-[3-fluoro-4-(4-morpholinyl)phenyl]-2-oxo-5-oxazolidinyl]methyl]butyrimidate]
> 128 | 128 (≈ 381 µM) | > 128 | CC(=N)NC[C@H]1CN(c2ccc(N3CCOCC3)c(F)c2)C(=O)O1 [Cmpd 6]
64 (≈ 169 µM) | 16 (≈ 42.3 µM) | 32 (≈ 84.6 µM) | CC(=O)N=C(C)NC[C@H]1CN(c2ccc(N3CCOCC3)c(F)c2)C(=O)O1 [Cmpd 7, N-Acetyl-N'-[[(5S)-3-[3-fluoro-4-(4-morpholinyl)phenyl]-2-oxo-5-oxazolidinyl]methyl]acetimidate]

Second part, the molecule before the results:

SMILES | MIC (E. faecium OC3312) [µg/mL] | MIC (MRSA OC2878) [µg/mL] | MIC (S. aureus OC4172) [µg/mL]
CSC(=NC#N)NCC1CN(c2ccc(N3CCOCC3)c(F)c2)C(=O)O1 (stereo in doubt) [Cmpd 3, N-Cyano-N'-[[(5S)-3-[3-fluoro-4-(4-morpholinyl)phenyl]-2-oxo-5-oxazolidinyl]methyl]carbamimidothioic acid, methyl ester] | 8 (≈ 20.3 µM) | 4 (≈ 10.2 µM) | 4 (≈ 10.2 µM)
CN=C(NC#N)NC[C@H]1CN(c2ccc(N3CCOCC3)c(F)c2)C(=O)O1 [Cmpd 1, N-Cyano-N'-[[(5S)-3-[3-fluoro-4-(4-morpholinyl)phenyl]-2-oxo-5-oxazolidinyl]methyl]-N"-methylguanidine] | 32 (≈ 85 µM) | 32 (≈ 85 µM) | 16 (≈ 42.5 µM)
CC(=NC[C@H]1CN(c2ccc(N3CCOCC3)c(F)c2)C(=O)O1)NC#N [Cmpd 2, N-Cyano-N'-[[(5S)-3-[3-fluoro-4-(4-morpholinyl)phenyl]-2-oxo-5-oxazolidinyl]methyl]ethanimidamide] | 2 (≈ 5.53 µM) | 1 (≈ 2.77 µM) | 2 (≈ 5.53 µM)
CN(C)C(=NC#N)NC[C@H]1CN(c2ccc(N3CCOCC3)c(F)c2)C(=O)O1 [Cmpd 4, N-Cyano-N'-[[(5S)-3-[3-fluoro-4-(4-morpholinyl)phenyl]-2-oxo-5-oxazolidinyl]methyl]-N", N"-dimethylguanidine] | 64 (≈ 164 µM) | 32 (≈ 82 µM) | 16 (≈ 41 µM)
